Results as given in US20090275551A1, “Fluvastatin for the treatment of patients with a history of muscle related side effects with other statins” (priority 2007, published 2009).

Key:
[1] = Randomized, double-blind 12-week study: safety, tolerability and recurrence of muscle-related side effects (MRSE); format: in vivo, human (patients)
Description: (§1) A randomized, double-blind, double-dummy, parallel-group, multicenter study evaluating the efficacy and tolerability of fluvastatin XL 80 mg/day, and ezetimibe 10 mg/day, alone or in combination, is conducted according to the ethical principles of the Guidelines for Good Clinical Practice and the Declaration of Helsinki of the World Medical Association. Patients are recruited in 27 centers in Germany, Greece, Norway, Russia, Turkey and the United States. The protocol is approved by local ethics committees or institutional review boards. Written, informed consent before randomization are provided by all patients.
After a minimum 5-week lead-in, drug wash-out and diet stabilization period, patients who fulfilled the study criteria are randomized in a 1:1:1 ratio to 12-week treatment with fluvastatin XL 80 mg plus matched placebo for ezetimibe 10 mg, or ezetimibe 10 mg plus matched placebo for fluvastatin XL 80 mg, or fluvastatin XL 80 mg plus ezetimibe 10 mg. For blinding purposes tablets for fluvastatin XL/placebo and capsules for ezetimibe/placebo are used. Treatment assignment is unbiased and concealed from patients and investigator staff, by a randomization list produced by the sponsor using a validated system that automates the random assignment of treatment groups. Treatment remains fully blinded from the time of randomization until database lock. Trial medication is taken with water at bedtime. Compliance is assessed by study personnel using pill counts at each visit. Patients are to continue a low saturated fat and cholesterol-restricted diet and exercise regimen.
The study enrolls men and women 18 years of age or older with dyslipidemia who have previously experienced documented MRSEs that have led to cessation of statin treatment, or patients currently receiving statin treatment (other than fluvastatin) whose quality of life is affected by MRSEs and require switching to an alternative treatment. MRSEs include myalgia (defined as muscle ache, pain or discomfort), muscle cramps, lack of strength during effort, heaviness and/or weakness without creatine kinase elevation >3 times upper limit of normal.
Safety evaluations include regular monitoring of all adverse events, urine, hematology, blood chemistry, as well as physical examination and assessment of vital signs. MRSEs are assessed before and during the study using a standard questionnaire as detailed in Table 1.
Objectives of this study are to assess LDL-C reduction from baseline of (1) fluvastatin XL 80 mg in combination with ezetimibe 10 mg compared with ezetimibe 10 mg monotherapy and (2) fluvastatin XL 80 mg compared with ezetimibe 10 mg. Objectives of the study are also include (1) to assess the tolerability of fluvastatin XL 80 mg and ezetimibe 10 mg alone or in combination as determined by the rate of recurrence of MRSEs and the rate of recurrence of MRSEs leading to study drug discontinuation; (2) to assess the effect of fluvastatin XL 80 mg alone or in combination with ezetimibe 10 mg on total cholesterol, triglycerides, HDL-C, LDL-C:HDL-C ratio, Apo-AI and Apo-B compared with ezetimibe 10 mg monotherapy; (3) to determine the number of patients in each treatment group who reached target LDL-C levels according to the current National Cholesterol Education Program guidelines, (4) to assess the effect of fluvastatin XL 80 mg and ezetimibe 10 mg alone or in combination on hs-CRP; and (5) to assess the overall safety and tolerability profile of fluvastatin XL 80 mg and ezetimibe 10 mg alone or in combination.
With a sample size of 70 patients per treatment group, the study has 90% power to detect a difference of 9.65% between the population means, using a two-sided comparison with α equal to 0.05 and assuming a standard deviation of 17.5% in both groups. Efficacy and tolerability analyses are performed using the intent-to-treat population, defined as all patients receiving at least 1 dose of study drug. […]

LDL-C = assay: Randomized, double-blind 12-week study: lipid-lowering efficacy in patients with prior statin MRSEs; format: in vivo, human (patients)
Description: as §1
After a minimum 5-week lead-in, drug wash-out and diet stabilization period, patients who fulfilled the study criteria are randomized in a 1:1:1 ratio to 12-week treatment with fluvastatin XL 80 mg plus matched placebo for ezetimibe 10 mg, or ezetimibe 10 mg plus matched placebo for fluvastatin XL 80 mg, or fluvastatin XL 80 mg plus ezetimibe 10 mg. […] Compliance is assessed by study personnel using pill counts at each visit. […]
Initial screening includes medical history, physical examination, clinical chemistry, hematology and urinalysis. […] AI and Apo-B are measured at weeks 0, 4, 8 and 12. High sensitivity C-reactive protein (hs-CRP) is measured at weeks 0 and 12. […] LDL-C is calculated using the Friedewald formula when triglyceride levels <400 mg/dL. […]

O=C1[C@H](CC[C@H](O)c2ccc(F)cc2)[C@@H](c2ccc(O)cc2)N1c1ccc(F)cc1 [Ezetimibe]
MRSE recurrence leading to discontinuation, incidence rate ([1]; 12-week treatment): 8%
MRSE recurrence leading to discontinuation, number of patients ([1]; 12-week treatment): 5 patients
any MRSE recurrence, incidence rate ([1]; 12-week treatment): 24%
any MRSE recurrence, number of patients ([1]; 12-week treatment): 16 patients
patients prematurely discontinued from the study due to adverse events ([1]; 12-week treatment): 8 patients
patients reporting an adverse event ([1]; 12-week treatment, safety population): 39 patients
median time to first event, MRSE recurrence leading to discontinuation ([1]; in vivo): 2.57 weeks
median time to first event, any MRSE recurrence ([1]; in vivo): 3.07 weeks
LDL-C lowering from baseline (LDL-C; baseline to week 12 or study end (LOCF), fluvastatin XL 80 mg/day, ezetimibe 10 mg/day): 15.6%
patients achieving a LDL-C level of <100 mg/dL at study end (LDL-C; subgroup of 91 patients in the high-risk category): 4%
